A word on the melting point: it is the temperature of the solid-liquid transition.

With `COc1cc(C2=C(c3c(-c4ccccc4)[nH]c4ccccc34)C(=O)NC2=O)cc(OC)c1OC` [Example 6, 3-(2-Phenylindole-3-yl)-4-(3,4,5-trimethoxyphenyl)-1H-pyrrole-2,5-dione], the melting point turned out to be 304 °C.
As to `COc1ccc(C2=C(c3c[nH]c4ccccc34)C(=O)NC2=O)cc1OC` [Example 2, 3-(Indole-3-yl)-4-(3,4-dimethoxyphenyl)-1H-pyrrole-2,5-dione], the melting point was 210 °C.
In the case of `COc1ccc2[nH]cc(C3=C(c4cc(OC)c(OC)c(OC)c4)C(=O)NC3=O)c2c1` [Example 3, 3-(5-Methoxyindole-3-yl)-4-(3,4,5-trimethoxyphenyl)-1H-pyrrole-2,5-dione] it was 268 °C.
Next, `COc1cc(C2=C(c3c[nH]c4ncccc34)C(=O)NC2=O)cc(OC)c1OC` [Example 8, 3-(7-Azaindol-3-yl)-4-(3,4,5-trimethoxyphenyl)-1H-pyrrole-2,5-dione]: 162 °C.
Next, `COc1cc(C2=C(c3cn(C)c4ccccc34)C(=O)NC2=O)cc(OC)c1OC` [Example 4, 3-(1-Methylindole-3-yl)-4-(3,4,5-trimethoxyphenyl)-1H-pyrrole-2,5-dione]: 187 °C.
The molecule `COc1cc(C2=C(c3cc4ccccc4[nH]3)C(=O)NC2=O)cc(OC)c1OC` [Example 7, 3-(Indole-2-yl)-4-(3,4,5-trimethoxyphenyl)-1H-pyrrole-2,5-dione] registered a melting point of 252 °C.
In the case of `COc1cc(C2=C(c3c(C)[nH]c4ccccc34)C(=O)NC2=O)cc(OC)c1OC` [Example 5, 3-(2-Methylindole-3-yl)-4-(3,4,5-trimethoxyphenyl)-1H-pyrrole-2,5-dione] it was 266 °C.

Source of the values: patent US8008320B2, “3-(indolyl)-4-arylmaleimide derivatives and their use as angiogenesis inhibitors” (Johannes Gutenberg-Universitatis, priority 2004, dated 2011).
